Earlier results on 1 compound are cited in patent US20050014730A1, “Anti-fungal formulation of triterpene and essential oil” (priority 2003, published 2005).

Take `C=C(C)[C@@H]1CC[C@]2(CO)CC[C@]3(C)[C@H](CC[C@@H]4[C@@]5(C)CC[C@H](O)C(C)(C)[C@@H]5CC[C@]43C)[C@@H]12` [betulin]: the “solubility of betulin in water” value is reported as “about 0.15 mg/l”.
